Laboratory results published in US11034839B2, “Compounds, linked with haptens, for the detection of senescent cells” (THE UNIVERSITY OF MANCHESTER, priority 2016, dated 2021).

Legend:
[1] = system: senescent cells in cellular systems, mouse models and human clinical samples; test: Double staining with Ki67, p16INK4A or p21WAF1/Cip1
Description: (§1) • 1. Compound (LG13) • 2. 100% ethanol (100% EtOH) • 3. Parafilm • 4. Fritted glass filter of medium porosity • 5. Airtight Dye Container 2.2.2 General Procedure: • 1. Dissolve 40 mg of the compound (LG13) in 7.4 ml 100% EtOH in a glass beaker and cover it with parafilm. • 2. Incubate at 56° C. in a waterbath for 120 min until the compound is completely dissolved. 2.3. General Method for Compound (LG13) Staining 2.3.1 Materials: • 1. Xylene • 2. […] Syringe • 4. 13 mm filter, membrane 0.22 μm • 5. Soft paper (dry or dipped in ethanol) • 6. Anti-biotin antibody ([Hyb-8] ab201341, Abcam) • 7. Ultravision Quanto Detection System HRP DAB kit (Cat no: TL-125-QHD) • 8. Glycerol (Sigma-Aldrich) • 9. Tris Buffered Saline (TBS; 10×): 1.5 M NaCl, 0.1 M Tris-HCl, pH 7.4. Store at 4° C. • 10. 0.5% Triton X/TBS: 0.5 ml Triton X diluted in 99.5 ml TBS • 11. Mounting media Glycergel (DakoCytomation). • 12. Light Microscope • 13. Anti-p21^WAF1/Cip1 mouse primary antibody [(F-5)(sc-6246) Santa-Cruz] • 14. Anti-p16^INK4A mouse primary antibody [(sc-74401) Santa-Cruz] • 15. Anti-Ki67 rabbit polyclonal antibody [ab16667, Abcam] • 16. Secondary goat anti-mouse antibody Alexa Fluor 568 conjugated [Thermo Fisher Scientific (Cat no: A-11004)] • 17. DAPI (4′,6-Diamidino-2-Phenylindole, Dihydrochloride) [Thermo Fisher Scientific (Cat no: D1306)] • 18. Fluorescence microscope 2.3.2 General Procedures: 2.3.2.1 General Staining Protocol for Cells Mounted on Coverslips • 1. Wash ×1 in TBS for 5 min at RT. • 2. Block the endogenous hydrogen peroxidase, using the UltraVision Hydrogen Peroxide Block included in the Ultravision Quanto Detection System HRP DAB kit (Cat no: TL-125-QHD) for 10 min at RT and in dark conditions. • 3. Wash ×2 in TBS for 30 sec and ×1 for 5 min at RT. • 4. Wash ×1 in EtOH 50% for 5 min at RT. • 5. Wash ×1 EtOH 70% for 5 min at RT. • 6. […] The staining reaction is monitored under the light microscope until detection of the signal (average time 5-8 min). • 8. […] The staining reaction is monitored under the light microscope until detection of the dark brown signal (average time 30 sec-1 min) at RT 1. • 20. […]

[2] = system: senescent cells in U2OS hCdt1 Tet-ON cell line, palbociclib-induced human melanoma xenograft mouse model, irradiated human breast tissue; test: Hybrid histo-/immunochemical assay (HIC) compared with SBB histochemical stain (HC)
Description: as §1, with “Anti-p16^INK4A mouse primary antibody [(sc-74401) Santa-Cruz] • 15. Anti-Ki67 rabbit polyclonal antibody [ab16667, Abcam] • 16. Secondary goat anti-mouse antibody Alexa Fluor 568 conjugated [Thermo Fisher Scientific (Cat no: A-11004)] • 17. DAPI (4′,6-Diamidino-2-Phenylindole, Dihydrochloride) [Thermo Fisher Scientific (Cat no: D1306)] • 18.” left out, “1.” for “1. Wash ×1 in TBS for 5 min at RT. • 2. Block the endogenous hydrogen peroxidase, using the UltraVision Hydrogen Peroxide Block included in the Ultravision Quanto Detection System HRP DAB kit (Cat no: TL-125-QHD) for 10 min at RT and in dark conditions. • 3. Wash ×2 in TBS for 30 sec and ×1 for 5 min at RT. • 4. Wash ×1 in EtOH 50% for 5 min at RT. • 5. Wash ×1 EtOH 70% for 5 min at RT. • 6.”

[3] = system: senescent cells in biological systems with established senescence; test: Quantitative analysis and concordance of SA-b-gal, SBB and GL13 staining; details: FIG. 15

CC1(COC(=O)CCCC[C@H]2SC[C@H]3NC(=O)N[C@H]32)Nc2cccc3c(/N=N/c4ccc(/N=N/c5ccccc5)c5ccccc45)ccc(c23)N1 (stereo partly drawn) [LG13, (2-methyl-6-((E)-(4-((E)-phenyldiazenyl)naphthalen-1-yl)diazenyl)-2,3-dihydro-1H-perimidin-2-yl)methyl 5-((3aR,4R,6aS)-2-oxohexahydro-1H-thieno[3,4-d]imidazol-4-yl)pentanoate]
relationship between Ki67 expression and compound staining ([1]; double staining in cell culture systems and human clinical samples, FIG. 11): Strict inverse relationship | compound staining of senescent cells with nuclear p16INK4A or p21WAF1/Cip1 expression ([1]; irradiated DLFs, induced Saos2-p21 Tet-ON, K-rasV12 mouse lung adenoma, irradiated human breast samples, FIG. 12i): concurrently positive | relationship between nuclear Ki67 positivity and compound staining ([1]; lung sections, mouse bleomycin-induced lung fibrosis, FIG. 12ii): strict inverse relationship | IHC staining relative to SBB HC staining ([2]; U2OS hCdt1 Tet-ON, palbociclib melanoma xenograft, irradiated human breast tissue, FIG. 14 ai, bi, ci): superiority | senescence detection using the HIC assay ([2]; additional cellular systems, mouse models, human clinical samples, FIG. 14 aii, bii, cii): sensitive senescence detection | specificity compared among SA-b-gal, SBB and GL13 staining [3]: concordance of specificity
